“Also recorded” adds a separate entry of the source.

The values that follow come from patent US20150306011A1, “METHODS FOR USING SOY PEPTIDES TO INHIBIT H3 ACETYLATION, REDUCE EXPRESSION OF HMG-COA REDUCTASE AND INCREASE LDL RECEPTOR AND SP1 EXPRESSION IN A MAMMAL” (priority 2014, published 2015).

Data set [1] concerns HMG-CoA reductase expression in HepG2 cells. The data set can be described thus: Western blot of HMG-CoA reductase expression in HepG2 cells in cholesterol-free media. Format: cell-based. As to conditions: 10 uM synthetic lunasin, 24 hours, cholesterol-free media 24 hours. On the procedure: (§1) FIG. 2 is a photograph of a Western blot analysis (top) and a table (below) showing densitometer values indicating the relative levels of expression of HMG-CoA reductase in HepG2 cells that were (CFM+LS (24)) or were not (CFM) treated with lunasin for 24 hours prior to incubation in cholesterol free media (CFM) for 24 hours to activate sterol regulatory element binding proteins (SREBP.) After incubations, total protein was extracted and 10 ug protein was loaded onto 10% Tris-glycine gels, electroblotted onto nitrocellulose membrane, and immunostained with primary antibodies raised against HMG-CoA reductase and actin (to show equal loading of proteins.) Spot densitometer values represent mean and standard deviation of data from three separate experiments.
In the first experiment, HepG2 cells (1×10^6) were treated with or without 10 uM synthetic lunasin in DMEM with 10% FBS for 24 hours before growth media was replaced with cholesterol-free media to activate SREBP. After 24 hours, total protein was extracted and 10 ug protein was loaded onto 10% Tris-glycine gels, electroblotted onto nitrocellulose membrane, and immunostained with primary antibodies raised against HMG-CoA reductase and actin (to show equal loading of proteins). […]

Data set [2] has as its system histone H3 acetylation by PCAF. The data set can be described thus: PCAF histone acetylase (HAT) assay, core histones from HeLa cells as template, immunoblot. Format: biochemical. On the procedure: Acid extracted protein from untreated (untrt) HeLa cells was used as template in histone acetylase reactions using HAT enzyme, PCAF, in the presence or absence of 10 uM lunasin. Reaction products were immunoblotted and stained with antibodies against diacetylated histone H3. Untrt (−) is the histone template control, NaB (+) correspond to acid extracted histones from NaButyrate treated HeLa cells (positive control). […] Numbers in parenthesis indicate densitometer readings relative to the untreated control (set as 1) in PCAF HAT reaction products.
Acid extracted histones isolated from untreated (untrt) HeLa cells were used in PCAF HAT reactions, immunoblotted and stained with antibodies to H3 Ac-Lys9 and H3 Ac-Lys14. Untrt (−) is the histone template control, NaB (+) correspond to acid extracted histones from NaButyrate treated HeLa cells (posititve control), +Lun correspond to 10 uM lunasin treated histone template and −Lun correspond to non-lunasin treated. […] Numbers in parenthesis indicate densitometer readings relative to the signal level of lunasin/lunasin treatment (set as 1) in immunoblots stained with Ac-Lys14 H3.
[…] H3 histone acetylation by PCAF histone acetylase enzyme is required for the SREBP activation of genes involved in cholesterol biosynthesis including HMG-CoA reductase (9). Previous study has shown that lunasin is a potent inhibitor of histone H3 acetylation in mammalian cells exposed to the histone deacetylase inhibitor, sodium butyrate (NaB) (4). To determine the effect of lunasin on histone H3 acetylation by PCAF, HAT assay reaction using acid-extracted histones from untreated HeLa cells as template was conducted. […]
The HAT bioactivity assay was conducted using acid extracted core histones from HeLa cells (Upstate/Millipore) as a template (temp (−) control) for the PCAF catalyzed HAT reaction. […] The numbers below the legend indicate relative densitometer readings normalized using immunosignal from the template (temp). […]

For data set [3], the system named is histone H3 acetylation by PCAF. The data set can be described thus: PCAF HAT bioactivity assay, core histones from chicken erythrocyte as template. As to conditions: around 10 ug sample protein with 1 ug core histones; versus untreated control. The class given is biochemical. On the procedure: Lunasin-enriched soy concentrate with soy flour (LeSC+SF) retains bioactivity even when digested with digestive enzymes. Biological activity of LeSC (A), LeSC+SF (B), digested LeSC+SF (C), digested LeSC (D), digested soy protein isolate (E) and digested soy concentrate (F) was measured using the H3 histone acetyltransferase (HAT) assay (see Example 8.) Around 100 mg total protein of LeSC, LeSC+SF, soy protein isolate and soy concentrate were digested by mixing pancreatin (Sigma Life Sciences, Saint Louis, Mo.) at 1:1 (w/w) and incubating for 30 min. at 40° C. To confirm that the HAT assay is working, treatment with synthetic lunasin (+synL) was included. Synthetic lunasin reduced acetylation of histone H3 by the histone acetylase enzyme, PCAF, using core histones isolated from chicken erythrocyte (Upstate/Millipore, Billerica, Mass.) as template for the HAT assay. […]
Core histones purified from chicken erythrocyte cells were used as templates in histone acetylase (HAT) reactions using PCAF histone acetylase enzyme, in the presence or absence of around 2-10 uM lunasin. […] Chemiluminescent signals from antibody complexes were visualized using standard chemiluminescent reagents and exposed to Kodak BioMAX film, developed and spot densitometer measured by using digital scanner and UN-SCAN-IT software program from Silk Scientific (Orem, Utah).

The subject of data set [4] is tumor formation in mammalian cells. As to conditions: 1,000 nM (5 μg/ml) to 10,000 nM (50 μg/ml) lunasin; cited from earlier work.
Data set [5] deals with LDL-receptor expression in HepG2 cells. The data set can be described thus: Western blot of LDL receptor expression in HepG2 cells in cholesterol-free media. The class given is cell-based. As to conditions: 10 uM synthetic lunasin, 24 hours, cholesterol-free media 24 hours. How it is done:
as §1, with “FIG. 3” for “FIG. 2”, “of LDL receptor” for “of HMG-CoA reductase”, “were (CFM +LS(24))” for “were (CFM+LS (24))”, “activate SREBP.” for “activate sterol regulatory element binding proteins (SREBP.)”, “against LDL-receptor” for “against HMG-CoA reductase”
In the second experiment, HepG2 cells (1×10^6) were treated with or without 10 uM synthetic lunasin in DMEM with 10% FBS for 24 hours before growth media is replaced with cholesterol-free media to activate SREBP. After 24 hours, total protein was extracted and 10 ug proteins loaded onto 10% Tris-glycine gels, electroblotted onto nitrocellulose membrane, and immunostained with primary antibodies raised against LDL-receptor and actin (to show equal loading of proteins). Spot densitometer values were obtained by digital scanning and Un-Scan It software, and represent mean and standard deviation of data from three separate experiments.

The conditions of data set [6]: cited from earlier work.
The test system of data set [7] is Sp1 expression in HepG2 cells. The data set can be described thus: Western blot of Sp1 levels in HepG2 cells. The class given is cell-based. As to conditions: 10 uM synthetic lunasin, one experiment. On the procedure:
FIG. 4 is a photograph of a Western blot analysis (top) and a table (below) showing densitometer values indicating the relative levels of expression of Sp1 in HepG2 cells that were grown from confluence in growth media for 24 hours before growth media was replaced with fresh growth media (Media), media with lunasin (Media+LS) or cholesterol free media with lunasin (CFM+LS) or without lunasin (CFM). Samples were then incubated for 24 or 48 hours as indicated. […]
Unlike HMG-CoA reductase, SREBP activation of LDL-receptor by sterol depletion requires increased recruitment of Sp1 co-activator to a site adjacent to SREBP in the promoter/regulatory sequence of LDL-receptor gene (25). […] To test this hypothesis, the level of Sp1 was determined in lunasin-treated growth media and cholesterol-free media by Western analysis using Sp1 antibody, as follows: HepG2 cells (1×10^6) were grown from confluence in DMEM with 10% FBS for 24 hours before growth media was replaced with fresh growth media or cholesterol-free media (to activate SREBP) and treated with, or without 10 uM synthetic lunasin. […]

Setting [8] is: 10 uM lunasin, acid-extracted histones from untreated HeLa cells.

Consider “lunasin: natural, synthetically or recombinantly obtained soybean lunasin polypeptide (SEQ. ID. 2), small subunit of a cotyledon-specific 2S albumin”, for which the “reduction of HMG-CoA reductase expression” value in data set [1] was “more than 50%”. In data set [2] (setting [8]), the “H3 Lys 14 acetylation by PCAF (antibodies to H3 Ac-Lys9 and H3 Ac-Lys14)” value is given as “decreased H3 Lys 14 acetylation; also recorded: specifically binds to Lys 14, preventing it from being acetylated by PCAF”; the “histone H3 acetylation (diacetylated H3, Ac-Lys9+Ac-Lys14) by PCAF” value is reported as “significant decrease in H3 acetylation; also recorded: dramatic reduction of histone H3 acetylation”. In addition, in data set [2] (core histones from HeLa cells as template), the “H3 acetylation by PCAF, undigested samples (Example 6)” value was “significant reduction in H3 acetylation”. The “H3 acetylation by PCAF, undigested samples (Example 5)” value in data set [3] was “significant reduction in H3 acetylation”. Moreover, the “tumor reduction activity compared to the control group” value in data set [4] is given as “statistically significant tumor reduction activity”. In addition, in data set [5], the “increase of LDL-receptor expression” value is “more than 60%”. The water solubility entry in data set [6] is recorded as “water soluble”. In data set [7] (cholesterol-free media), the “increase of Sp1 levels in cholesterol-free media” value is reported as about 60%. Also, the “Sp1 levels, lunasin-treated versus control growth media” value in data set [7] (growth media) was “not significantly different”.
